According to US8003642B2, “Nitrogenated heterocyclic derivative, and pharmaceutical agent comprising the derivative as active ingredient” (Ono Pharmaceutical Co., Ltd., priority 2006, dated 2011):

Columns and labels:
[1] = biological target: T1, human CYP3A4 (Homo sapiens, UniProt P08684); assay: Inhibitory activity against human CYP3A4 (7-benzyloxyquinoline substrate, expression system microsome); assay type: in vitro ADME; conditions: substrate 7-BQ 40 μM, expression system microsome 0.25 mg/mL, 30 minutes incubation, fluorescence
T1 construct: purchased Daiichikagakuyakuhin
T1 sequence (P08684 whole entry): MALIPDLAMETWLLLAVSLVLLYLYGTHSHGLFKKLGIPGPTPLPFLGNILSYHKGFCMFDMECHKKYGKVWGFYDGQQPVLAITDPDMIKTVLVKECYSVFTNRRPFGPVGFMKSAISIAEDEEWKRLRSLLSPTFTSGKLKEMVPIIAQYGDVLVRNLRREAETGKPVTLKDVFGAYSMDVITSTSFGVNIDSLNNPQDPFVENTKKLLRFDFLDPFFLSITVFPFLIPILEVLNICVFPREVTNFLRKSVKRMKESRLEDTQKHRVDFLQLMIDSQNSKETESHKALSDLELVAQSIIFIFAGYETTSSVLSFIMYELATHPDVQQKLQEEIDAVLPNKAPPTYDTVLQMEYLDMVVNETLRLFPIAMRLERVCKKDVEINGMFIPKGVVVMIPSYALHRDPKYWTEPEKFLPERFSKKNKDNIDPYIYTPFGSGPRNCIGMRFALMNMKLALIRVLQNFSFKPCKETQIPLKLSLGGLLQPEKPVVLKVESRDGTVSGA
Description: Inhibitory activity against human CYP3A4 of the compound of the present invention can be evaluated by an improved method described in Drug Metabolism and Disposition, Vol. 28(12), 1440-1448 (2000).
For example, a reaction solution consisted of potassium phosphate buffer (pH 7.4) (final concentration: 200 mM), magnesium chloride hexahydrate (final concentration: 5 mM), substrate (7-benzyloxyquinoline (7-BQ), final concentration: 40 μM), and expression system microsome (Daiichikagakuyakuhin, final concentration: 0.25 mg/mL) was prepared. 100 μL of the reaction solution is dispensed in 96 well plate, and added by 50 μL of an aqueous solution containing test a compound and 0.8% acetonitrile, to carry out 10 minutes of preincubation at 37° C. 50 μL of a reduced nicotinamide adenine dinucleotide phosphate (NADPH, 4 mM) is added to initiate a reaction. The fluorescence intensity of each well was measured at the time when NADPH was added and after incubated for 30 minutes. Excitation wavelength at 409 nm and emission wavelength at 530 nm of quinolinol, which is metabolite of substrate, was measured. Inhibition ratio (%) of the test compound was calculated by the following calculation formula to obtain IC50 value. Inhibition ratio(%)=[1−{(measured value when a test compound is added)−(blank value)/(control value−blank value)}]×100

[2] = biological target: human CCR5 (Homo sapiens, UniProt P51681); assay: CCR5 binding test ([125I]MIP-1β binding inhibition); conditions: inhibition of [125I]MIP-1β (0.1 nM) binding to membrane fraction of human CCR5 stably over-expressing CHO-K1 cell, 25° C., 120 minutes
Sequence of human CCR5 (P51681 whole entry): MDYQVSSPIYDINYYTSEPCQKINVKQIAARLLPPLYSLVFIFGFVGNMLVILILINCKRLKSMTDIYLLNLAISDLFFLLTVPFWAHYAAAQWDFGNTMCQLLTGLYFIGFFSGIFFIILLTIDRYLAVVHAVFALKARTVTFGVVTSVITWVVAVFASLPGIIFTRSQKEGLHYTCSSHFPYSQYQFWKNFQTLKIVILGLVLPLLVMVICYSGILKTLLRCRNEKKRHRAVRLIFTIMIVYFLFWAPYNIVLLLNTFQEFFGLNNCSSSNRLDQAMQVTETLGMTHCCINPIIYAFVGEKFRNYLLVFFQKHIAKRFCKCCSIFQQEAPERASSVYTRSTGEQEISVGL
Description: A membrane fraction of the human CCR5 stably over-expressing CHO-K1 cell was suspended in assay buffer (50 mM HEPES/0.5% BSA/1 mM calcium chloride/5 mM magnesium chloride, pH 7.4) and dispensed in a 48 well polypropylene plate with U-shaped bottom in the amount corresponding to 1 μg of protein/well. Then, an unlabelled ligand was added so as to obtain a concentration of 0.1 μM in a non-specific binding group, while a compound was added so as to obtain a final concentration of 0.003 to 0.3 μM in a compound group. Subsequently, [^125I]MIP-1β was added so as to obtain a final concentration of 0.1 nM and a mixture thereof was incubated at 25° C. for 120 minutes. The membrane fraction was trapped with a filter, washed, and then radioactivity of [^125I]MIP-1β was measured by a γ counter.
Inhibition ratio (%) of the test compound was calculated by the following calculation formula. Inhibition ratio=[(Ec−Ea)/Ec]×100 • Ec: Radioactivity of when DMSO control solution is added−radioactivity of non-specific binding group • Ea: Radioactivity of when test compound is added−radioactivity of non-specific binding group

IC50 [1] [µM] | IC50 [2] [µM] | SMILES
≥ 30 | ≤ 0.1 | CCCCN(C(=O)Nc1cc(C(N)=O)c(F)cc1F)C1CCN(Cc2ccc(Oc3ccc(C(=O)N(C)C)cc3)nc2C)CC1 [Example 16(61), 5-({butyl[1-({6-[4-(dimethylcarbamoyl)phenoxy]-2-methyl-3-pyridinyl}methyl)-4-piperidinyl]carbamoyl}amino)-2,4-difluorobenzamide]
≥ 30 |  | CCCCN(C(=O)Nc1cc(C(N)=O)c(F)cc1F)C1CCN(Cc2ccc(Oc3ccc(C(=O)N4CCN(C)CC4)cc3)nc2C)CC1 [Example 16(63), 5-[(butyl {1-[(2-methyl-6-{4-[(4-methyl-1-piperazinyl)carbonyl]phenoxy}-3-pyridinyl)methyl]-4-piperidinyl}carbamoyl)amino]-2,4-difluorobenzamide]
 | ≤ 0.1 | CCCCN(C(=O)Nc1cc(C(N)=O)c(F)cc1F)C1CCN(Cc2ccc(Oc3ccc(C(=O)NCC)cc3)nc2C)CC1 [Example 16(62), 5-({butyl[1-({6-[4-(ethylcarbamoyl)phenoxy]-2-methyl-3-pyridinyl}methyl)-4-piperidinyl]carbamoyl}amino)-2,4-difluorobenzamide]
≥ 30 |  | CCCCN(C(=O)Nc1cc(C(N)=O)c(F)cc1F)C1CCN(Cc2ccc(Oc3ccc(C(=O)N4CCN(C(C)=O)CC4)cc3)nc2C)CC1 [Example 16(60), 5-{[{1-[(6-{4-[(4-acetyl-1-piperazinyl)carbonyl]phenoxy}-2-methyl-3-pyridinyl)methyl]-4-piperidinyl}(butyl)carbamoyl]amino}-2,4-difluorobenzamide]
